Data as given in ChEMBL document CHEMBL5120927, “LEGO-Lipophosphonoxins: A Novel Approach in Designing Membrane Targeting Antimicrobials” (J Med Chem, 2022).

Columns and labels:
[1] = system: Staphylococcus aureus; assay: Antibacterial activity against Staphylococcus aureus ATCC 29213 = CCM 4223 assessed as inhibition of bacterial growth incubated for 24 hrs by microdilution assay; format: functional
[2] = system: Escherichia coli; assay: Antibacterial activity against multidrug-resistant Escherichia coli CE5556 expressing CTX-M-15 assessed as reduction in microbial growth incubated for 24 hrs by microdilution assay; format: functional
[3] = system: Pseudomonas aeruginosa; assay: Antibacterial activity against multidrug-resistant Pseudomonas aeruginosa assessed as reduction in microbial growth incubated for 24 hrs by microdilution assay; format: functional
[4] = system: Staphylococcus aureus; assay: Antibacterial activity against methicillin resistant Staphylococcus aureus 4591/A assessed as reduction in microbial growth incubated for 24 hrs by microdilution assay; format: functional
[5] = system: Enterococcus faecalis; assay: Antibacterial activity against Enterococcus faecalis ATCC 29212 = CCM 4224 assessed as inhibition of bacterial growth incubated for 24 hrs by microdilution assay; format: functional
[6] = system: Staphylococcus aureus; assay: Antibacterial activity against Staphylococcus aureus ATCC 29213 = CCM 4223 assessed as inhibition of bacterial growth incubated for 24 hrs in presence of BSA by microdilution assay; format: functional
[7] = system: Staphylococcus epidermidis; assay: Antibacterial activity against Staphylococcus epidermidis CCM 7221 assessed as inhibition of bacterial growth incubated for 24 hrs by microdilution assay; format: functional
[8] = system: Escherichia coli; assay: Antibacterial activity against Escherichia coli ATCC 25922 = CCM 3954 assessed as inhibition of bacterial growth incubated for 24 hrs in presence of BSA by microdilution assay; format: functional
[9] = system: Pseudomonas aeruginosa; assay: Antibacterial activity against Pseudomonas aeruginosa ATCC 27853 = CCM 3955 assessed as inhibition of bacterial growth incubated for 24 hrs by microdilution assay; format: functional
[10] = Hemolytic activity in human RBC assessed as haemoglobin release measured after 3 hr; format: toxicity, cell-based, Erythrocyte; conditions: red blood cells (erythrocytes)
[11] = system: Enterococcus faecium; assay: Antibacterial activity against vancomycin resistant Enterococcus faecium 419/ANA assessed as reduction in microbial growth incubated for 24 hrs by microdilution assay; format: functional
[12] = system: Escherichia coli; assay: Antibacterial activity against Escherichia coli ATCC 25922 = CCM 3954 assessed as inhibition of bacterial growth incubated for 24 hrs by microdilution assay; format: functional
[13] = Gradient chromatographic hydrophobicity index of the compound at pH 3.7 by HPLC analysis; format: ADME

| Compound | MIC [1] [µg/mL] | MIC [2] [µg/mL] | MIC [3] [µg/mL] | MIC [4] [µg/mL] | MIC [5] [µg/mL] | MIC [6] [µg/mL] | MIC [7] [µg/mL] | MIC [8] [µg/mL] | MIC [9] [µg/mL] | HC50 at 3 h [10] [µg/mL] | MIC [11] [µg/mL] | MIC [12] [µg/mL] | CHI [13] |
| --- | --- | --- | --- | --- | --- | --- | --- | --- | --- | --- | --- | --- | --- |
| CC(C)COP(=O)(CCN(CCCN)CCCN)OCCCCCCCCOP(=O)(CCN(CCCN)CCCN)OCC(C)C.Cl.Cl.Cl.Cl.Cl.Cl (centres undefined) | > 128 | > 128 | > 128 | > 128 | > 128 | > 128 | 32 | > 128 | > 128 | > 1000 | > 128 | > 128 | 25.2 |
| Cl.Cl.Cl.Cl.Cl.Cl.NCCN(CCN)CCP(=O)(OCCCCCCOP(=O)(CCN(CCN)CCN)OCCc1ccccc1)OCCc1ccccc1 (centres undefined) | 32 | > 128 | > 128 | 64 | > 128 | 128 | 16 | > 128 | > 128 | > 200 | > 128 | > 128 | 30.9 |
| CCCCC/C=C\CCCOP(=O)(CCN(CCCN)CCCN)OCCCOP(=O)(CCN(CCCN)CCCN)OCCC/C=C\CCCCC.Cl.Cl.Cl.Cl.Cl.Cl (centres undefined) | 1 | 1 | 2 | 1 | 2 | 2 | 1 | 2 | 2 | 271 | 8 | 1 | 39.8 |
| CCCCOP(=O)(CCN(CCCN)CCCN)OCCCCCCCCOP(=O)(CCN(CCCN)CCCN)OCCCC.Cl.Cl.Cl.Cl.Cl.Cl (centres undefined) | > 128 | > 128 | > 128 | > 128 | > 128 | > 128 | 64 | > 128 | > 128 | > 100 | > 128 | 128 | 11 |
| CC/C=C\CCCOP(=O)(CCN(CCCN)CCCN)OCCCCCOP(=O)(CCN(CCCN)CCCN)OCCC/C=C\CC.Cl.Cl.Cl.Cl.Cl.Cl (centres undefined) | 16 | > 128 | > 128 | 32 | > 128 | 64 | 8 | > 128 | > 128 | > 200 | > 128 | 128 | 27.7 |
| CCC/C=C\CCOP(=O)(CCN(CCCN)CCCN)OCCCCCCCOP(=O)(CCN(CCCN)CCCN)OCC/C=C\CCC.Cl.Cl.Cl.Cl.Cl.Cl (centres undefined) | 4 | 16 | 128 | 4 | 64 | 8 | 2 | 64 | 128 | > 200 | 128 | 4 | 31.3 |
| CCCCC/C=C\CCOP(=O)(CCN(CCCN)CCCN)OCCCOP(=O)(CCN(CCCN)CCCN)OCC/C=C\CCCCC.Cl.Cl.Cl.Cl.Cl.Cl (centres undefined) | 2 | 4 | 4 | 2 | 8 | 4 | 2 | 4 | 8 | > 500 | 64 | 2 | 36.2 |
| CCCCC/C=C\CCOP(=O)(CCN(CCCNC(=N)N)CCCNC(=N)N)OCCCCCOP(=O)(CCN(CCCNC(=N)N)CCCNC(=N)N)OCC/C=C\CCCCC.Cl.Cl.Cl.Cl.Cl.Cl (centres undefined) | 1 | 1 | 8 | 1 | 4 | 1 | 1 | 1 | 8 | 121 | 8 | 1 | 36.4 |
